Our source for the EC50 values is ChEMBL document CHEMBL5726211, “SGC stimulators” (2019).

Structures are written as SMILES.

This experiment is described as follows: HEK WC Assay: Human embryonic kidney cells (HEK293), endogenously expressing soluble guanylate cyclase (sGC), were used to evaluate the activity of test compounds. Compounds stimulating the sGC receptor should cause an increase in the intracellular concentration of cGMP. HEK 293 cells were seeded in Dulbecco's Modification of Eagle's Medium supplemented with fetal bovine serum (10% final) and L-glutamine (2 mM final) in a 200 μL volume at a density of 1×10^5 cells/well in a poly-D-lysine coated 96 well flat bottom plate and grown overnight at 37° C. Medium was aspirated and cells were washed with 1× Hank's Buffered Saline Salt Solution (200 μL). Cells were then incubated for 15 minutes at 37° C. with 0.5 mM 3-isobutyl-1-methylxanthine (200 μL). Test article and sodium nitroprusside were then added to the assay mixture (2 μL each) and incubated at 37° C. for 10 minutes. After the 10 minute incubation, the assay mixture was aspirated and 0.1M HCl (200 μL) was added to the cells. The plate was incubated at 4° C. for 30 minutes in the 0.1M HCl to stop the reaction and lysed the cells. The plates were then centrifuged at 1,200 g for 5 minutes at room temperature. Supernatants were collected and transferred to a new flat bottom 96 well plate for analysis. Vehicle controls were carried out using DMSO (1%). A known sGC stimulator, BAY 41-2272, was used as the positive control. Samples were diluted with an equal volume of 1 M Ammonium Acetate (pH 7) to neutralize samples for better chromatography. A 2×cGMP standard curve was prepared in 0.1 M HCl and then diluted with an equal volume of 1 M Ammonium Acetate, with the following final concentrations in nM: 1024, 512, 256, 128, 64, 32, 16, 8, 4, 2, 1. cGMP concentrations were determined from each sample using the LC/MS conditions (Table 2 below) and calculated standard curve. EC50 values were calculated from concentration-response curves generated with GraphPad Prism Software. In kind it is cell-based.
Consider `Nc1nc(-c2cc(-c3ccon3)n(Cc3ccccc3F)n2)ncc1NC(=O)c1cscn1`, for which the EC50 – broadly, the concentration that produces a half-maximal response – is below 20 µM.

As for `CN(C)c1ccccc1C(=O)Nc1cnc(-c2cc(-c3ccon3)n(Cc3ccccc3F)n2)nc1N`, the EC50 was 40 to 60 µM.

With `COc1ccc(C(=O)Nc2cnc(-c3cc(-c4ccon4)n(Cc4ccccc4F)n3)nc2N)cc1`, the EC50 was below 20 µM.

Turning to `[C-]#[N+]c1cc(-c2ccccn2)nn1Cc1ccccc1F`, the EC50 was 30 µM.

Take `CC(C)(F)C(=O)Nc1cnc(-c2cc(-c3ccon3)n(Cc3ccccc3F)n2)nc1N`: the EC50 was below 20 µM.

Turning to `Nc1nc(-c2cc(-c3ccon3)n(Cc3ccccc3F)n2)ncc1NC(=O)C1CC2C=CC1C2` (stereo unspecified), the EC50 was below 20 µM.

As to `Nc1nc(-c2cc(-c3ncco3)n(Cc3ccccc3F)n2)ncc1NC(=O)C1(C(F)(F)F)CC1`, the EC50 is below 20 µM.

As for `Nc1nc(-c2cc(-c3ccon3)n(Cc3ccccc3F)n2)ncc1NC(=O)c1cccc(OC(F)(F)F)c1`, the EC50 was below 20 µM.

Take `[C-]#[N+]C1(C(=O)Nc2cnc(-c3cc(-c4ccon4)n(Cc4ccccc4F)n3)nc2N)CC1`: the EC50 is below 20 µM.

Regarding `Cc1cccc(C)c1C(=O)Nc1cnc(-c2cc(-c3ccon3)n(Cc3ccccc3F)n2)nc1N`, the EC50 is below 20 µM.

For `CCOC(=O)c1cnc(-c2cc(-c3ccon3)n(Cc3ccccc3F)n2)nc1O`, the EC50 was 20 to 40 µM.
